These results are taken from publication PMC8469897, “Transcriptomic Characterization of Odorant Binding Proteins in Cacia cretifera thibetana and Their Association with Different Host Emitted Volatiles” (Insects, 2021).

One test concerns CcreOBP6. Description: Fluorescence competitive binding assay with 1-NPN probe, CcreOBP6. Details: species or system Cacia cretifera thibetana. The method, then:
(§1) The binding affinities of both CcreOBP6 and CcreOBP10 proteins with 20 odor volatiles were determined. The CcreOBP6 and CcreOBP10 proteins from prokaryotic cells were purified by Ni affinity chromatography. Then, 50 mM Tris-HCL buffer solution (pH = 7.4) was prepared, and N-phenyl-1-naphthylamine (1-NPN) was used as a fluorescent probe. For chromatography, the methanol was used as a solvent for fluorescent probe 1-NPN as well as for 20 odor standard volatile samples dissolved in solvent to make a 1 mM solution. These samples were added to a 96 Micro Well TM microtiter plate (NunclonTM) while the multifunctional microplate reader (VARIOSKAN FLASH) excitation light wavelength was set to 337 nm. The scanning wavelength was between 370 to 550 nm, and both excitation and emission slits were set to 5 nm. To determine the CcreOBP6 and CcreOBP10 protein binding constant with the fluorescent probe 1-NPN, a solution was prepared with CcreOBP6 and CcreOBP10 proteins in Tris-HCL (pH = 7.4) buffer with a 2 μM final concentration. The successive concentrations of 2, 4, 6, 8, 12, 16, and 20 μM of 1-NPN were added, and the fluorescence intensity was recorded at the maximum emission wavelength (Em = 410 nm) for each time, and the experiment was repeated three times. The formula for the protein and odor standard dissociation constant was calculated by: Ki = [IC 50]/(1 + [1-NPN]/K 1-NPN) where IC 50 denotes the odor standard concentrations as the fluorescence intensity value was decreased by half, [1-NPN] is the unbound 1-NPN prob concentration, and K 1-NPN is the protein and 1-NPN probe binding constant.

The next test has as its system CcreOBP10. Description: Fluorescence competitive binding assay with 1-NPN probe, CcreOBP10. Details: species or system Cacia cretifera thibetana. As to the method: as §1
In the next test the test system is males and females. Set-up: method as in PMID 23564737. As to conditions: olfactometer, lower dose; cited from earlier work.
The mark [1] stands for this setting: competitive displacement of 1-NPN.
The mark [2] stands for this setting: 2 μM protein, Tris-HCl pH 7.4, Em 410 nm, read-out: dissociation constant with fluorescent probe 1-NPN.
The mark [3] stands for this setting: Ki = [IC50]/(1 + [1-NPN]/K1-NPN).
[4] abbreviates: odor concentration at which 1-NPN fluorescence intensity is halved.

On to `CC12CCC(CC1)C(C)(C)O2` [eucalyptol], for which the relative fluorescence value in the test on CcreOBP6 (setting [1]) came to 10.84%.
Take phytol: the “binding with CcreOBP6” value in the test on CcreOBP6 (setting [1]) is recorded as “did not show any binding”. The “binding with CcreOBP10” value with CcreOBP10 (setting [1]) is “showed binding”.
For the molecule `c1ccc(Nc2cccc3ccccc23)cc1` [1-NPN, N-phenyl-1-naphthylamine, reference compound], the Kd on CcreOBP6 (setting [2]) stood at 7.09 µM; at CcreOBP10 (setting [2]), 6.18 µM.
Broadly, the Ki is the dissociation constant of the complex between target and ligand, obtained from inhibition or displacement. A word on the IC50: it is the midpoint of a concentration-inhibition curve. A lower IC50 goes with inhibition by little substance. As to `CCC/C=C/C=O` [trans-2-hexenal], the Ki on CcreOBP6 (setting [3]) was 12.9 µM. For the same molecule, the “binding with CcreOBP6” value in the test on CcreOBP6 (setting [1]) is listed as “strong binding affinities”. This molecule also yielded a half-maximal inhibitory concentration (IC50) at CcreOBP6 (setting [4]) of 16.2 µM. Besides, in the test with CcreOBP10 (setting [1]), the “binding with CcreOBP10” value is recorded as “strong binding affinities” and the relative fluorescence value result is recorded as “below 50%”. Further, in the test on males and females, the repellent activity result was “good repellent activity”.
With `C1=CCCCC=CCCC1` [1,6-cyclodecadiene], the “binding with CcreOBP6” value in the test on CcreOBP6 (setting [1]) is given as “did not show any binding”.
As to `C=C1CC[C@H]2O[C@]2(C)CC[C@@H]2[C@@H]1CC2(C)C` [caryophyllene oxide], the “binding with CcreOBP6” value in the test with CcreOBP6 (setting [1]) was “did not show any binding”.
Take `CC(C)COC(=O)c1ccccc1C(=O)OCC(C)C` [di-isobutyl phthalate]: the “drop in the relative fluorescence value” in the test on CcreOBP10 (setting [1]) is recorded as 6.4%.
Take `C=CC(=C)CCC=C(C)C` [Myrcene]: the Ki on CcreOBP10 (setting [3]) came out at 13.8 µM. For the same molecule, the relative fluorescence value entry with CcreOBP10 (setting [1]) is recorded as “below 50%”. At CcreOBP10 (setting [4]), this molecule displayed a 50% inhibitory concentration (IC50) of 17.9 µM.
Take `CCCCCC=O` [n-hexanal]: in the test on CcreOBP6 (setting [1]), the “binding with CcreOBP6” value was “did not show any binding”. In the test with CcreOBP10 (setting [1]), the “binding with CcreOBP10” value is “showed binding”.
As for `C=C1CC/C=C(\C)CC[C@@H]2[C@@H]1CC2(C)C` [1-caryophyllene], in the test on CcreOBP10 (setting [1]), the relative fluorescence value entry is on record as “below 50%”.
